Measured values published in article PMC11808726, “Identification of ABHD6 as a lysophosphatidylserine lipase in the mammalian liver and kidneys” (The Journal of Biological Chemistry, 2025).

Target: T1, ABHD6 (Mus musculus, UniProt Q8R2Y0)
T1 construct: full-length mouse ABHD6, pcDNA3.1 myc-His, overexpressed in HEK293T (membrane fraction)
T1 sequence (Q8R2Y0 1-336): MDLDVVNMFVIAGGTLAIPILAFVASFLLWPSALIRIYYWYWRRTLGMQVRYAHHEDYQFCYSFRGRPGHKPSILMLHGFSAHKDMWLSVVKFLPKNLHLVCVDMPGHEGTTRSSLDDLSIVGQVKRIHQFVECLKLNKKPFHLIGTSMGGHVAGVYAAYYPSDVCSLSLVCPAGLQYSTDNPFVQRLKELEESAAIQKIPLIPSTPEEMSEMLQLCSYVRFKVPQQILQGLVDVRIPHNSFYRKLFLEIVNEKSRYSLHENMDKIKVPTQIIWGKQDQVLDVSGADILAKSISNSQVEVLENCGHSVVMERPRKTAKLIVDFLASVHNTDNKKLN
Test: competitive gel-based ABPP dose response with FP-rhodamine; lyso-PS lipase LC-MS assay; in vivo ABPP
Format: biochemical

IC50: < 10 nM
SMILES: O=C(c1cccc(-c2ccc(-c3cn(C(=O)N4CCCCC4c4ccccc4)nn3)cc2)c1)N1CCCCC1 (stereo not shown) [KT185]
